According to patent US10357481B2 (MERCK SHARP & DOHME CORP., priority 2015, dated 2019):

Biological target: T1, human PDE2A1 (Homo sapiens, UniProt O00408)
T1 construct: GST; purchased BPS Bioscience (San Diego, Calif.) 60020; host or cells: insect cells
Assay: IMAP FP PDE selectivity panel, human PDE2A1
Format: biochemical
Conditions: Lab B; read-out: Human PDE2 Ki (nM) Lab B
How it was run: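 Human PDE2A1 tested alongside PDE1–11 by IMAP fluorescence polarization at room temperature. Substrate was 50 nM FAM-cAMP plus 1000 nM cGMP, buffer pH 7.2 with MgCl2 and DTT, enzyme set for 20% conversion. Ten 3-fold compound dilutions; 60 min reaction, then IMAP binding solution, 1 h, parallel/perpendicular fluorescence read.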

T1 sequence (O00408 1-920 isoform O00408-2): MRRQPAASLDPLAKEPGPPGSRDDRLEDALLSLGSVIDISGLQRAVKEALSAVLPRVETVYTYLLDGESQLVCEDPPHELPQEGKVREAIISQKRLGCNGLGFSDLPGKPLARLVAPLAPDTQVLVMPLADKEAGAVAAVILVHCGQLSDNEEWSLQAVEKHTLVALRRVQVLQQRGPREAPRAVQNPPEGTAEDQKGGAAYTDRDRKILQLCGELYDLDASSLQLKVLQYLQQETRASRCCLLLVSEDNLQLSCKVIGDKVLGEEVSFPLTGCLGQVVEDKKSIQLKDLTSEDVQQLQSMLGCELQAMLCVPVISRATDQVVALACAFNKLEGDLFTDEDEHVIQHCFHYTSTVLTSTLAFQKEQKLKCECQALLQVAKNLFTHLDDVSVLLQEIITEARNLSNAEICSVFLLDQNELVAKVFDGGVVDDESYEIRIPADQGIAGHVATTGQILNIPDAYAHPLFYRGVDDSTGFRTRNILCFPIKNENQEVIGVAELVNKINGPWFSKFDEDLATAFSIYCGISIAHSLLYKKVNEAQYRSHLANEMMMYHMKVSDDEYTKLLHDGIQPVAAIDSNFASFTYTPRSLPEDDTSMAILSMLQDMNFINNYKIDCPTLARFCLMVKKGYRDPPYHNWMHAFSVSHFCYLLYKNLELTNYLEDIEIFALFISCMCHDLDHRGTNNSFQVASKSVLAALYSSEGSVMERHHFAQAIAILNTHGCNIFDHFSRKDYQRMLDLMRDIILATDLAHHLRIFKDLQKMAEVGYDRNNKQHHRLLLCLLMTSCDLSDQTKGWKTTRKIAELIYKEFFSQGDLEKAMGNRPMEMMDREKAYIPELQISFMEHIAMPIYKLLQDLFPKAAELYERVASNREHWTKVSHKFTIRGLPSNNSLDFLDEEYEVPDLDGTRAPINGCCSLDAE

Compound | Ki [nM]
COCC(Nc1cc(C)nc2ncnn12)c1ccc(C(F)(F)F)c(F)c1 (single isomer, unassigned) [Example 209, (R)- or (S)-N-(1-(3-Fluoro-4-(trifluoromethyl)phenyl)-2-methoxyethyl)-5-methyl-[1,2,4]triazolo [1,5-a]pyrimidin-7-amine] | > 2960
COCC(Nc1cc(C)nc2ncnn12)c1ccc(C(F)(F)F)c(F)c1 (single isomer, unassigned) [Example 210, (S)- or (R)-N-(1-(3-Fluoro-4-(trifluoromethyl)phenyl)-2-methoxyethyl)-5-methyl-[1,2,4]triazolo [1,5-a]pyrimidin-7-amine] | 583
Cc1cc(NC(c2ccc(C(F)(F)F)cn2)C(C)C)n2ncnc2n1 (single isomer, unassigned) [Example 211, (R)- or (S)-5-Methyl-N-(2-methyl-1-(5-(trifluoromethyl)pyridin-2-yl)propyl)-[1,2,4] triazolo[1,5-a] pyrimidin-7-amine] | ~2480
Cc1cc(NC(c2ccc(C(F)(F)F)cn2)C(C)C)n2ncnc2n1 (single isomer, unassigned) [Example 212, (S)- or (R)-5-Methyl-N-(2-methyl-1-(5-(trifluoromethyl)pyridin-2-yl)propyl)-[1,2,4]triazolo [1,5-a]pyrimidin-7-amine] | 310
CC(C)(O)C(Nc1cc(C(F)(F)F)nc2ncnn12)c1ccc(C(F)(F)F)c(F)c1 (single isomer, unassigned) [Example 213, (S)- or (R)-1-(3-Fluoro-4-(trifluoromethyl)phenyl)-2-methyl-1-(5-(trifluoromethyl)-[1,2,4]triazolo [1,5-a]pyrimidin-7-ylamino)propan-2-ol] | > 2960
CC(C)(O)C(Nc1cc(C(F)(F)F)nc2ncnn12)c1ccc(C(F)(F)F)c(F)c1 (single isomer, unassigned) [Example 214, (S)- or (R)-1-(3-Fluoro-4-(trifluoromethyl)phenyl)-2-methyl-1-(5-(trifluoromethyl)-[1,2,4]triazolo [1,5-a]pyrimidin-7-ylamino)propan-2-ol] | 25
CCC(O)(CC)C(Nc1cc(C)nc2ncnn12)c1ccc(C(F)(F)F)c(F)c1 (single isomer, unassigned) [Example 215, (R)- or (S)-3-((3-Fluoro-4-(trifluoromethyl)phenyl)(5-methyl-[1,2,4]triazolo [1,5-a]pyrimidin-7-ylamino)methyl) pentan-3-ol] | > 2960
CCC(O)(CC)C(Nc1cc(C)nc2ncnn12)c1ccc(C(F)(F)F)c(F)c1 (single isomer, unassigned) [Example 216, (S)- or (R)-3-((3-Fluoro-4-(trifluoromethyl)phenyl)(5-methyl-[1,2,4]triazolo [1,5-a]pyrimidin-7-ylamino)methyl) pentan-3-ol] | 134
COCC(Nc1cc(C(F)(F)F)nc2ncnn12)c1ccc(C(F)(F)F)c(F)c1 (single isomer, unassigned) [Example 217, (R)- or (S)-N-(1-(3-Fluoro-4-(trifluoromethyl)phenyl)-2-methoxyethyl)-5-(trifluoromethyl)-[1,2,4]triazolo [1,5-a]pyrimidin-7-amine] | 329
COCC(Nc1cc(C(F)(F)F)nc2ncnn12)c1ccc(C(F)(F)F)c(F)c1 (single isomer, unassigned) [Example 218, (S)- or (R)-N-(1-(3-Fluoro-4-(trifluoromethyl)phenyl)-2-methoxyethyl)-5-(trifluoromethyl)-[1,2,4]triazolo [1,5-a]pyrimidin-7-amine] | > 2960
CCC(O)(CC)C(Nc1cc(C(F)(F)F)nc2ncnn12)c1ccc(C(F)(F)F)c(F)c1 (single isomer, unassigned) [Example 219, (R)- or (S)-3-((3-Fluoro-4-(trifluoromethyl)phenyl)(5-(trifluoromethyl)-[1,2,4]triazolo [1,5-a]pyrimidin-7-ylamino)methyl) pentan-3-ol] | 252
CCC(O)(CC)C(Nc1cc(C(F)(F)F)nc2ncnn12)c1ccc(C(F)(F)F)c(F)c1 (single isomer, unassigned) [Example 220, (S)- or (R)-3-((3-Fluoro-4-(trifluoromethyl)phenyl)(5-(trifluoromethyl)-[1,2,4]triazolo [1,5-a]pyrimidin-7-ylamino)methyl) pentan-3-ol] | ~2110
CC(C)(O)C(Nc1cc(C(F)(F)F)nc2ncnn12)c1ccc(SC(F)(F)F)cc1 (single isomer, unassigned) [Example 221, (R)- or (S)-2-Methyl-1-(5-(trifluoromethyl)-[1,2,4]triazolo [1,5-a]pyrimidin-7-ylamino)-1-(4-(trifluoromethylthio)phenyl)propan-2-ol] | > 2960
CC(C)(O)C(Nc1cc(C(F)(F)F)nc2ncnn12)c1ccc(SC(F)(F)F)cc1 (single isomer, unassigned) [Example 222, (S)- or (R)-2-Methyl-1-(5-(trifluoromethyl)-[1,2,4]triazolo [1,5-a]pyrimidin-7-ylamino)-1-(4-(trifluoromethylthio)phenyl)propan-2-ol] | 4.4
Cc1cc(NC(c2ccc(C(F)(F)F)nc2)C(C)(C)O)n2ncnc2n1 (single isomer, unassigned) [Example 225, (R)- or (S)-2-Methyl-1-(5-methyl-[1,2,4]triazolo [1,5-a]pyrimidin-7-ylamino)-1-(6-(trifluoromethyl)pyridin-3-yl) propan-2-ol] | 258
Cc1cc(NC(c2ccc(C(F)(F)F)nc2)C(C)(C)O)n2ncnc2n1 (single isomer, unassigned) [Example 226, (S)- or (R)-2-Methyl-1-(5-methyl-[1,2,4]triazolo [1,5-a]pyrimidin-7-ylamino)-1-(6-(trifluoromethyl)pyridin-3-yl) propan-2-ol] | 356
Cc1cc(NC(c2ccc(OC(F)(F)F)c(F)c2)C2COC2)n2ncnc2n1 (single isomer, unassigned) [Example 229, (R)- or (S)-N-((3-Fluoro-4-(trifluoromethoxy)phenyl)(oxetan-3-yl)methyl)-5-methyl-[1,2,4]triazolo [1,5-a]pyrimidin-7-amine] | 448
Cc1cc(NC(c2ccc(OC(F)(F)F)c(F)c2)C2COC2)n2ncnc2n1 (single isomer, unassigned) [Example 230, (S)- or (R)-N-((3-Fluoro-4-(trifluoromethoxy)phenyl)(oxetan-3-yl)methyl)-5-methyl-[1,2,4]triazolo [1,5-a]pyrimidin-7-amine] | 167
CN(C)c1cc(N[C@H](c2ccc(C(F)(F)F)c(F)c2)C(C)(C)O)n2ncnc2n1 (single isomer, unassigned) [Example 243] | > 2960

Further lines, results first:

Ki [nM] | Compound
> 2960 | CC(C)(O)C(Nc1cc(C(F)F)nc2ncnn12)c1ccc(OC(F)(F)F)c(F)c1 (single isomer, unassigned) [Example 188, (1R or S)-{[5-(Difluoromethyl) [1,2,4]triazolo [1,5-a]pyrimidin-7-yl]amino}-1-[3-fluoro-4-(trifluoromethoxy)phenyl]-2-methylpropan-2-ol]
17 | CC(C)(O)C(Nc1cc(C(F)F)nc2ncnn12)c1ccc(OC(F)F)c(F)c1 (single isomer, unassigned) [Example 189, (1S or R)-[4-(Difluoromethoxy)-3-fluorophenyl]-1-{[5-(difluoromethyl) [1,2,4]triazolo [1,5-a]pyrimidin-7-yl]amino}-2-methylpropan-2-ol]
> 2960 | CC(C)(O)C(Nc1cc(C(F)F)nc2ncnn12)c1ccc(OC(F)F)c(F)c1 (single isomer, unassigned) [Example 190, (1R or S)-[4-(Difluoromethoxy)-3-fluorophenyl]-1-{[5-(difluoromethyl) [1,2,4]triazolo [1,5-a]pyrimidin-7-yl]amino}-2-methylpropan-2-ol]
1.1 | CC(C)(O)C(Nc1cc(Cl)nc2ncnn12)c1ccc(C(F)(F)F)c(F)c1 (single isomer, unassigned) [Example 223, (R)- or (S)-1-(5-Chloro-[1,2,4]triazolo [1,5-a]pyrimidin-7-ylamino)-1-(3-fluoro-4-(trifluoromethyl)phenyl)-2-methylpropan-2-ol]
612 | CC(C)(O)C(Nc1cc(Cl)nc2ncnn12)c1ccc(C(F)(F)F)c(F)c1 (single isomer, unassigned) [Example 224, (S)- or (R)-1-(5-Chloro-[1,2,4]triazolo [1,5-a]pyrimidin-7-ylamino)-1-(3-fluoro-4-(trifluoromethyl)phenyl)-2-methylpropan-2-ol]
7.6 | CC(C)(O)C(Nc1cc(C(F)F)nc2ncnn12)c1ccc(C(F)(F)F)c(F)c1 (single isomer, unassigned) [Example 227, (R)- or (S)-1-(5-(Difluoromethyl)-[1,2,4]triazolo [1,5-a]pyrimidin-7-ylamino)-1-(3-fluoro-4-(trifluoromethyl)phenyl)-2-methylpropan-2-ol]
> 2960 | CC(C)(O)C(Nc1cc(C(F)F)nc2ncnn12)c1ccc(C(F)(F)F)c(F)c1 (single isomer, unassigned) [Example 228, (S)- or (R)-1-(5-(Difluoromethyl)-[1,2,4]triazolo [1,5-a]pyrimidin-7-ylamino)-1-(3-fluoro-4-(trifluoromethyl)phenyl)-2-methylpropan-2-ol]
> 2960 | Cc1cc(NC(c2ccc(OC(F)(F)F)c(F)c2)C(C)(C)CO)n2ncnc2n1 (single isomer, unassigned) [Example 232, (S or S)-3-(3-fluoro-4-(trifluoromethoxy)phenyl)-2,2-dimethyl-3-(5-methyl-[1,2,4]triazolo[1,5-a]pyrimidin-7-ylamino)propan-1-ol]
210 | COc1cc(N[C@H](c2ccc(C(F)(F)F)c(F)c2)C(C)(C)O)n2ncnc2n1 (single isomer, unassigned) [Example 236]
1690 | COc1cc(N[C@@H](c2ccc(C(F)(F)F)c(F)c2)C(C)(C)O)n2ncnc2n1 (single isomer, unassigned) [Example 237]
